Measurements: patent US20210000778A1

Columns and labels:
Human H460 NSCLC cells = test: Oral efficacy in human non-small cell lung cancer xenografts; format: in vivo, CD1-Nu/Nu female mice; conditions: H460 xenograft; oral 100 mg/kg on day 8, 15, 22, 29; vs 5% dextrose or untreated
Experimental: Human H460 NSCLC cells were obtained from American Type Cell Culture (ATCC) (catalog no. HTB-177, Manassas, Va.). These cells tested negative for viral contamination using the Mouse Antibody Production (MAP) test, performed by Charles River Labs Molecular Division, upon the receipt of the tumor cells from ATCC. The tumor cells were maintained at 37° C. in a humidified 5% CO2 atmosphere in T225 tissue culture flasks containing 50 mL of Roswell Park Memorial Institute (RPMI)-1640 solution with 10% Fetal Bovine Serum (FBS) and 2 mM L-glutamine. Cells were split at a ratio of 1:10 every 2-3 days by trypsinization and resuspended in fresh medium in a new flask. Cells were harvested for experiments in the same way at 70-90% confluency.
CD1-Nu/Nu female mice, ˜4-6 weeks old were obtained from Charles River Laboratories. Mice were housed 5 to a cage in a micro-isolator room in the Department of Animal Laboratory Research of New York State University (SUNY) at Stony Brook. Light-dark cycles were 12 h each daily, with light from 7 a.m. to 7 p.m. […]
An acclimation period of 7 days was allowed between the arrival of the animal at the study site before tumor inoculation and experimentation. […] Tumor dimensions (length and width) were measured daily before, during and after treatment (using Vernier calipers) and the tumor volume was calculated using the prolate ellipsoid formula: (length× width^2)/2. […]

[1] = tested on: BxPC3 pancreatic cancer cells; test: Oral efficacy in human pancreatic cancer xenografts; format: in vivo, CD-1 nude mice; conditions: BxPC-3 xenograft; oral dose of 100 mg/week for 4 weeks; vs 5% dextrose or untreated
Experimental: An acclimation period of 7 days was allowed between the arrival of the animal at the study site before tumor inoculation and experimentation. Mice were inoculated subcutaneously (SC) in the right flank with 2×10^6 human H460 NSCLC or BxPC3 pancreatic cancer cells that were suspended in 0.1 mL of Dulbeco's Phosphate Buffered Salt (PBS) solution using a 1 cc syringe with a 27-5/8 gauge needle. Tumor dimensions (length and width) were measured daily before, during and after treatment (using Vernier calipers) and the tumor volume was calculated using the prolate ellipsoid formula: (length× width^2)/2. Treatment with test or control articles began 8 days post tumor cell implantation when the tumor was approximately 300 mm^3.
A similar study was conducted in CD-1 nude mice (n=9) inoculated with 2×10^6 BxPC-3 cells. The study was initiated when tumors reached an average size of 150 mm^3 (day 0) and CPI-613 was administered at an oral dose of 100 mg/week for 4 weeks. A comparator arm (n=9) was conducted with IP treatment at a weekly dose of 25 mg/kg.

[2] = Pardee et al., Clin Cancer Res. 2014; cited from earlier work
RWPI-1 = test: In vitro killing of prostate cancer cell lines, CellTiter 96 cell survival; format: cell-based; conditions: 60 hrs in RPMI with 10% FBS
Experimental: (§1) Cell survival was assayed with CellTiter 96® Aqueous One Solution Cell Proliferation Assay (Promega). EC50 values were calculated.

DU 145 = test: as above; format: cell-based; conditions: Homo sapiens, 60 hrs in RPMI with 10% FBS
Experimental: as §1

PC-3 = test: as above; format: cell-based; conditions: Homo sapiens, 60 hrs in RPMI with 10% FBS
Experimental: as §1

22RV1 = test: as above; format: cell-based; conditions: Homo sapiens, 60 hrs in RPMI with 10% FBS
Experimental: as §1

LnCap = test: as above; format: cell-based; conditions: Homo sapiens, 60 hrs in RPMI with 10% FBS
Experimental: as §1

[3] = tested on: androgen-resistance prostate PC-3 cancer cells; test: PC-3 flank model of androgen-resistant prostate cancer; format: in vivo; conditions: 2.5 mg/kg or 10 mg/kg, 2-3 times per week for five weeks

In the case of O=C(O)CCCCC(CCSCc1ccccc1)SCc1ccccc1 (centres unmarked), the Tumor growth (Human H460 NSCLC cells) is listed as “grew much more slowly”, the Tumor growth [1] is listed as “especially pronounced” and the “half-life after IV dosing” value [2] is listed as 1 to 2 h. For the same compound, the EC50 (RWPI-1) was 147 µM, the EC50 (DU 145) was 99 µM and the EC50 (PC-3) was 202 µM. For the same compound, the EC50 (22RV1) was 175 µM, the EC50 (LnCap) was 114 µM and the Toxicity [3] was “without toxicity”. For the same compound, the “Survival of the mice” value ([3]; vs saline control) was “increased survival” and the “Tumor growth (tumor volume over time)” value ([3]; vs saline control) was “significantly slower”.
